Read-outs that look alike come from different tables or passages of the source. Marks after values point to notes of the source that are not given here.
Tests used:
E. coli ATCC 11229 = assay: Log reduction of bacteria by liquid compositions, 30 second contact (E. coli); assay type: cell-based; conditions: for Log Reduction E. coli / Log Reduction: 30 second contact time; for Log Reduction E. coli: vs. untreated control; for Log Reduction: E. coli
Source text: (§1) A variety of nitrogen sources are utilized. Results recorded include the color of the solution and the microbial log reduction of gram-positive and gram-negative bacteria (E. coli and S. aureus, respectively). As shown earlier there is a direct correlation between color of the solution and microbial efficacy. […] Looking at Table 6, there is an obvious direct correlation between color and antimicrobial activity. Table 7 compares formulas of the present invention with prior art examples for the reduction of gram-positive and gram-negative bacteria. […] Results recorded include the pH of the solution, the color of the solution and the log reduction in microbe.

S. aureus = assay: Log reduction of bacteria by liquid compositions, 30 second contact (S. aureus); assay type: cell-based; conditions: for Log Reduction S. aureus: vs. untreated control
Source text: as §1

Feline parvovirus = conditions: cited from earlier work
[1] = test system: Penicillium expansum (ATCC 7861); assay: Mold spore suspension test, exposure, neutralization, plating on Sabouraud Dextrose agar; assay type: cell-based; conditions: P. expansum, 15 minute contact time
[2] = test system: Total bacterial flora on prerigor beef tissue surfaces; assay: Microbial reduction on prerigor beef tissue surfaces, 30 second treatment; assay type: cell-based
[3] = published results against Feline parvovirus
[4] = Actives Conc. 300 ppm, 30 second exposure

Compound: CCCCCCCC[N+](C)(C)[O-] [C8 amine oxide, Octyl dimethyl aznine oxide]
- Log Reduction E. coli (E. coli ATCC 11229): 0 log
- Log Reduction S. aureus (S. aureus; 30 second contact time): 0 log

Compound: CCO [Ethanol]
- Minimum Concentration (for 10-minute inactivation) (Feline parvovirus; [3]): 500,000 ppm

Compound: OO [Formula H2O2, hydrogen peroxide]
- Log Reduction ([1]; N-source:H2O2:KI 0:532:0 ppm, pH 5): 0.0* log
- Log Reduction E. coli (E. coli ATCC 11229): 0.2 log
- Log Reduction (CFU/ml) E. coli (E. coli ATCC 11229; [4]): 0.2 log CFU/ml
- Log Reduction (E. coli ATCC 11229; N-source:H2O2:KI 0:300:0 ppm, pH 5): 0.2 log
- Log Reduction S. aureus (S. aureus; 30 second contact time): 0 log
- Log Reduction (CFU/ml) S. aureus (S. aureus; [4]): 0.4 log CFU/ml
- Log Reduction (S. aureus; S. aureus, N-source:H2O2:KI 0:300:0 ppm, pH 5, 30 second contact time): 0.4 log
- Log Reduction (Z. bailii; N-source:H2O2:KI 0:532:0 ppm, pH 3, 30 second contact time): 0.1 log
- Log Reduction (Z. bailii; N-source:H2O2:KI 0:532:0 ppm, pH 5, 30 second contact time): 0.1 log
- Log Reduction (Z. bailii; N-source:H2O2:KI 0:532:0 ppm, pH 7, 30 second contact time): 0.1 log

Compound: O=CCCCC=O [Glutaraldehyde]
- Minimum Concentration (for 10-minute inactivation) (Feline parvovirus; published, (2-log)): 10,000

Compound: CC(C)O [IPA]
- Minimum Concentration (for 10-minute inactivation) (Feline parvovirus; [3]): 500,000 ppm

Compound: [I-].[K+] [KI, potassium iodide]
- Log Reduction ([1]; N-source:H2O2:KI 0:0:500 ppm, pH 5): 0.0* log
- Log Reduction E. coli (E. coli ATCC 11229): 0 log
- Log Reduction S. aureus (S. aureus; 30 second contact time): 0 log

Compound: [Na+].[O-]Cl [NaOCl]
- Minimum Concentration (for 10-minute inactivation) (Feline parvovirus; [3]): 2,000 ppm

Compound: CCCCCCCCCCCCCCCC[n+]1ccccc1 [cetyl pyridinium chloride]
- Log Reduction [2]: 0.5 log

Compound: C[N+](C)(C)CCO.[Cl-] [choline chloride]
- Log Reduction E. coli (E. coli ATCC 11229): 0 log
- Log Reduction (E. coli ATCC 11229; N-source:H2O2:KI 300:0:0 ppm, pH 7): 0.0 log
- Log Reduction S. aureus (S. aureus; 30 second contact time): 0 log
- Log Reduction (Z. bailii; N-source:H2O2:KI 300:0:0 ppm, pH 7, 30 second contact time): 0.0 log

Compound: CCCCCCCCCC[N+](C)(C)CCCCCCCCCC.[Cl-] [didecyl dimethyl ammonium chloride]
- Log Reduction ([1]; N-source:H2O2:KI 100:0:0 ppm, pH 7): 1.0* log
- Log Reduction (Z. bailii; N-source:H2O2:KI 20:0:0 ppm, pH 3, 30 second contact time): 0.1 log

Compound: CC(O)C(=O)O (centres unmarked) [lactic acid]
- Log Reduction ([2]; Active Antimicrobial 5000 ppm, treated 30 seconds, drained 10 minutes, relative to untreated starting meat carcass): 0.8 log

Compound: Oc1ccccc1-c1ccccc1 [o-phenylphenol G, o-phenylphenol]
- Minimum Concentration (for 10-minute inactivation) (Feline parvovirus; [3]): 100,000 ppm

Compound: cocoa dimethyl betaine
- Log Reduction E. coli (E. coli ATCC 11229): 0 log
- Log Reduction S. aureus (S. aureus; 30 second contact time): 0 log

Compound: cocodimethyl betaine
- Log Reduction E. coli (E. coli ATCC 11229): 0 log
- Log Reduction S. aureus (S. aureus; 30 second contact time): 0 log

Reference: patent US6436445B1, “Antimicrobial and antiviral compositions containing an oxidizing species” (Ecolab Inc., priority 1999, dated 2002)
